Legend:
Experiment in all cases: MIC, broth microdilution (CLSI), substance alone or ATB combined with compound at 4 or 8 μg/mL
ECO 190317 = format: cell-based, E. coli; details: ECO 190317; for MIC ATB combined with Example: Example @8 μg/ml
Summary of the method: (§1)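 Growth inhibition endpoint, read visually after 16-20 h at 35° C in ambient air. Cation-adjusted Mueller-Hinton broth, inoculum 5·10^5 CFU/mL, CLSI M7-A7 protocol.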

ECO UFR39 = format: cell-based, E. coli; details: ECO UFR39; for MIC ATB combined with Example: Example @8 μg/ml; for MIC ATB combined with Example compound: compound @8 μg/ml
Summary of the method: as §1

KPN 6299 = format: cell-based, K. pneumoniae; details: for MIC ATB combined with Example: Example @8 μg/ml
Summary of the method: as §1

KPN BAA-1898 = format: cell-based, K. pneumoniae; details: KPN BAA-1898; for MIC ATB combined with Example: Example @8 μg/ml
Summary of the method: as §1

KPN UFR42 = format: cell-based, K. pneumoniae; details: KPN UFR42; for MIC ATB combined with Example: Example @8 μg/ml; for MIC ATB combined with Example compound: compound @8 μg/ml
Summary of the method: as §1

ECL P99 = format: cell-based, E. cloacae; details: ECL P99; for MIC ATB combined with Example: Example @8 μg/ml
Summary of the method: as §1

PAE 105250 = format: cell-based, P. aeruginosa; details: PAE 105250; for MIC ATB combined with Example: Example @8 μg/ml; for MIC ATB combined with Example compound: compound @8 μg/ml
Summary of the method: as §1

PAE UFR48 = format: cell-based, P. aeruginosa; details: PAE UFR48; for MIC ATB combined with Example: Example @8 μg/ml; for MIC ATB combined with Example compound: compound @8 μg/ml
Summary of the method: as §1

PAE UFR90 = format: cell-based, P. aeruginosa; details: PAE UFR90; for MIC ATB combined with Example: Example @8 μg/ml; for MIC ATB combined with Example compound: compound @8 μg/ml
Summary of the method: as §1

SAU 29213 = format: cell-based, S. aureus; details: for MIC ATB combined with Example / MIC ATB combined with Example compound: SAU 29213; for MIC ATB combined with Example: Example @8 μg/ml; for MIC ATB combined with Example compound: compound @8 μg/ml
Summary of the method: as §1

SPN 49619 = format: cell-based, S. pneumoniae; details: SPN 49619; for MIC ATB combined with Example: Example @8 μg/ml; for MIC ATB combined with Example compound: compound @8 μg/ml
Summary of the method: as §1

ABA 107292 = format: cell-based, A. baumannii; details: substance alone
Summary of the method: as §1

ABA 19606 = format: cell-based, A. baumannii; details: substance alone
Summary of the method: as §1

In the case of `O=C1N2CC(n3ccnn3)=CC(C2)N1OS(=O)(=O)[O-].[Na+]` (stereo not drawn) [Example 12, sodium [7-oxo-3-(triazol-1-yl)-1,6-diazabicyclo[3.2.1]oct-3-en-6-yl] sulfate], the “MIC ATB combined with Example” value (ECO 190317; ATB ATM) is reported as <0.031 mg/L, the “MIC ATB combined with Example” value (ECO 190317; ATB FEP) is reported as <0.031 mg/L and the “MIC ATB combined with Example” value (ECO 190317; ATB FOS) is reported as <0.125 mg/L. The “MIC ATB combined with Example” value (ECO 190317; ATB MEM) was <0.031 mg/L, the “MIC ATB combined with Example” value (ECO 190317; ATB PIP) was <0.031 mg/L and the “MIC ATB combined with Example compound” value (ECO 190317; MIC of CIP, compound @8 μg/ml) was <0.031 mg/L. For the same compound, the MIC (ECO 190317; substance alone) was 1 mg/L, the “MIC ATB combined with Example” value (ECO UFR39; ATB ATM) was <0.031 mg/L and the “MIC ATB combined with Example” value (ECO UFR39; ATB FEP) was <0.031 mg/L. The “MIC ATB combined with Example” value (ECO UFR39; ATB FOS) was <0.125 mg/L, the “MIC ATB combined with Example” value (ECO UFR39; ATB MEM) was <0.031 mg/L and the “MIC ATB combined with Example” value (ECO UFR39; ATB PIP) was <0.031 mg/L. For the same compound, the “MIC ATB combined with Example compound” value (ECO UFR39; MIC of CIP) was <0.031 mg/L, the “MIC ATB combined with Example compound” value (ECO UFR39; MIC of CPO) was <0.031 mg/L and the MIC (ECO UFR39; substance alone) was 1 mg/L. For the same compound, the “MIC ATB combined with Example” value (KPN 6299; ATB ATM) was <0.031 mg/L, the “MIC ATB combined with Example” value (KPN 6299; ATB FEP) was <0.031 mg/L and the “MIC ATB combined with Example” value (KPN 6299; ATB FOS) was <0.125 mg/L. For the same compound, the “MIC ATB combined with Example” value (KPN 6299; ATB MEM) was <0.031 mg/L, the “MIC ATB combined with Example” value (KPN 6299; ATB PIP) was <0.031 mg/L and the “MIC ATB combined with Example compound” value (KPN 6299; MIC of CIP, compound @8 μg/ml) was <0.031 mg/L. For the same compound, the “MIC ATB combined with Example” value (KPN BAA-1898; ATB ATM) was <0.031 mg/L, the “MIC ATB combined with Example” value (KPN BAA-1898; ATB FEP) was <0.031 mg/L and the “MIC ATB combined with Example” value (KPN BAA-1898; ATB FOS) was <0.125 mg/L. For the same compound, the “MIC ATB combined with Example” value (KPN BAA-1898; ATB MEM) was <0.031 mg/L, the “MIC ATB combined with Example” value (KPN BAA-1898; ATB PIP) was <0.031 mg/L and the “MIC ATB combined with Example compound” value (KPN BAA-1898; MIC of CIP, compound @8 μg/ml) was <0.031 mg/L. For the same compound, the MIC (KPN BAA-1898; substance alone) was 2 mg/L, the “MIC ATB combined with Example” value (KPN UFR42; ATB ATM) was <0.031 mg/L and the “MIC ATB combined with Example” value (KPN UFR42; ATB FEP) was <0.031 mg/L. For the same compound, the “MIC ATB combined with Example” value (KPN UFR42; ATB FOS) was <0.125 mg/L, the “MIC ATB combined with Example” value (KPN UFR42; ATB MEM) was <0.031 mg/L and the “MIC ATB combined with Example” value (KPN UFR42; ATB PIP) was <0.031 mg/L. The “MIC ATB combined with Example compound” value (KPN UFR42; MIC of CIP) was <0.031 mg/L, the “MIC ATB combined with Example compound” value (KPN UFR42; MIC of CPO) was <0.031 mg/L and the MIC (KPN UFR42; substance alone) was 4 mg/L. For the same compound, the “MIC ATB combined with Example” value (ECL P99; ATB ATM) was <0.031 mg/L, the “MIC ATB combined with Example” value (ECL P99; ATB FEP) was <0.031 mg/L and the “MIC ATB combined with Example” value (ECL P99; ATB FOS) was <0.125 mg/L. For the same compound, the “MIC ATB combined with Example” value (ECL P99; ATB MEM) was <0.031 mg/L, the “MIC ATB combined with Example” value (ECL P99; ATB PIP) was <0.031 mg/L and the “MIC ATB combined with Example compound” value (ECL P99; MIC of CIP, compound @8 μg/ml) was <0.031 mg/L. For the same compound, the MIC (ECL P99; substance alone) was 1 mg/L, the “MIC ATB combined with Example” value (PAE 105250; ATB ATM) was 8 mg/L and the “MIC ATB combined with Example” value (PAE 105250; ATB FEP) was 2 mg/L. The “MIC ATB combined with Example” value (PAE 105250; ATB FOS) was >128 mg/L, the “MIC ATB combined with Example” value (PAE 105250; ATB MEM) was 1 mg/L and the “MIC ATB combined with Example” value (PAE 105250; ATB PIP) was 32 mg/L. For the same compound, the “MIC ATB combined with Example compound” value (PAE 105250; MIC of CIP) was 0.125 mg/L, the “MIC ATB combined with Example compound” value (PAE 105250; MIC of CPO) was 8 mg/L and the MIC (PAE 105250; substance alone) was >32 mg/L. The “MIC ATB combined with Example” value (PAE UFR48; ATB ATM) was 8 mg/L, the “MIC ATB combined with Example” value (PAE UFR48; ATB FEP) was 16 mg/L and the “MIC ATB combined with Example” value (PAE UFR48; ATB FOS) was 16 mg/L. For the same compound, the “MIC ATB combined with Example” value (PAE UFR48; ATB MEM) was 0.5 mg/L, the “MIC ATB combined with Example” value (PAE UFR48; ATB PIP) was 16 mg/L and the “MIC ATB combined with Example compound” value (PAE UFR48; MIC of CIP) was 4 mg/L. The “MIC ATB combined with Example compound” value (PAE UFR48; MIC of CPO) was >32 mg/L, the MIC (PAE UFR48; substance alone) was >32 mg/L and the “MIC ATB combined with Example” value (PAE UFR90; ATB ATM) was 16 mg/L. For the same compound, the “MIC ATB combined with Example” value (PAE UFR90; ATB FEP) was 4 mg/L, the “MIC ATB combined with Example” value (PAE UFR90; ATB FOS) was 8 mg/L and the “MIC ATB combined with Example” value (PAE UFR90; ATB MEM) was 1 mg/L. For the same compound, the “MIC ATB combined with Example” value (PAE UFR90; ATB PIP) was >32 mg/L, the “MIC ATB combined with Example compound” value (PAE UFR90; MIC of CIP) was 1 mg/L and the “MIC ATB combined with Example compound” value (PAE UFR90; MIC of CPO) was 8 mg/L. The MIC (PAE UFR90; substance alone) was >32 mg/L, the “MIC ATB combined with Example” value (SAU 29213; ATB ATM) was <0.031 mg/L and the “MIC ATB combined with Example” value (SAU 29213; ATB FEP) was <0.031 mg/L. For the same compound, the “MIC ATB combined with Example” value (SAU 29213; ATB FOS) was <0.125 mg/L, the “MIC ATB combined with Example” value (SAU 29213; ATB MEM) was <0.031 mg/L and the “MIC ATB combined with Example” value (SAU 29213; ATB PIP) was <0.031 mg/L. For the same compound, the “MIC ATB combined with Example compound” value (SAU 29213; MIC of CIP) was <0.031 mg/L, the “MIC ATB combined with Example compound” value (SAU 29213; MIC of CLI) was <0.0010 mg/L and the “MIC ATB combined with Example compound” value (SAU 29213; MIC of CPO) was <0.031 mg/L. For the same compound, the “MIC ATB combined with Example compound” value (SAU 29213; MIC of DAP) was <0.0020 mg/L, the “MIC ATB combined with Example compound” value (SAU 29213; MIC of ERY) was <0.0020 mg/L and the “MIC ATB combined with Example compound” value (SAU 29213; MIC of LZD) was <0.0078 mg/L. For the same compound, the “MIC ATB combined with Example compound” value (SAU 29213; MIC of RIF) was <0.00012 mg/L, the “MIC ATB combined with Example compound” value (SAU 29213; MIC of SYN) was <0.0020 mg/L and the “MIC ATB combined with Example compound” value (SAU 29213; MIC of VAN) was <0.0039 mg/L. The MIC (SAU 29213; substance alone, SAU 29213 (MSSA 29213)) was 8 mg/L, the “MIC ATB combined with Example” value (SPN 49619; ATB ATM) was >32 mg/L and the “MIC ATB combined with Example” value (SPN 49619; ATB FEP) was “<=0.031 μg/mL”. The “MIC ATB combined with Example” value (SPN 49619; ATB FOS) was 8 mg/L, the “MIC ATB combined with Example” value (SPN 49619; ATB MEM) was “<=0.031 μg/mL” and the “MIC ATB combined with Example” value (SPN 49619; ATB PIP) was 0.25 mg/L. The “MIC ATB combined with Example compound” value (SPN 49619; MIC of CIP) was 0.063 mg/L, the “MIC ATB combined with Example compound” value (SPN 49619; MIC of CLI) was <0.0010 mg/L and the “MIC ATB combined with Example compound” value (SPN 49619; MIC of CPO) was “<=0.031 μg/mL”. The “MIC ATB combined with Example compound” value (SPN 49619; MIC of DAP) was 0.031 mg/L, the “MIC ATB combined with Example compound” value (SPN 49619; MIC of ERY) was <0.0020 mg/L and the “MIC ATB combined with Example compound” value (SPN 49619; MIC of LZD) was 0.25 mg/L. For the same compound, the “MIC ATB combined with Example compound” value (SPN 49619; MIC of RIF) was 0.00049 mg/L, the “MIC ATB combined with Example compound” value (SPN 49619; MIC of SYN) was 0.125 mg/L and the “MIC ATB combined with Example compound” value (SPN 49619; MIC of VAN) was 0.016 mg/L. The MIC (SPN 49619; substance alone) was 8 mg/L, the MIC (ABA 107292) was >32 mg/L and the MIC (ABA 19606) was 32 mg/L.

— patent US20200024278A1, “COMPOSITION COMPRISING ANTIBIOTIC COMPOUND AND AN HETEROCYCLIC COMPOUND AND THEIR USE IN PREVENTING OR TREATING BACTERIAL INFECTIONS” (MUTABILIS, priority 2016, published 2020)
